melting point: 83 °C
SMILES: CCc1ccc(C(O)COc2ccc(C=O)cc2)nc1 (stereo not shown) [Compound 9a, 4-[2-(5-Ethyl-pyridin-2-yl)-2-hydroxy-ethoxy]-benzaldehyde]
